Tests used:
NMU2 F131L = biological target: T1, NMU2 F131L (Homo sapiens, UniProt Q9GZQ4, F131L); test: IP accumulation assay, NMU2 mutant F131L; assay type: cell-based; conditions: 10 μM R-PSOP
T1 construct: HA signal peptide (N); expressed in transfected cells; host or cells: HEK 293F, transient transfection, PTT5 vector
Method: (§1) NMU2 constructs of WT and mutants were constructed into PTT5 vector (Invitrogen), as mentioned above. HEK 293F cells were transiently transfected with WT or mutants with total of 2000 ng plasmid DNA using transfection reagent (PEI MAX 2000, Polysciences) and cultivated at 37 °C with 5% CO2. Cells were collected after 48-h transfection. IP accumulation was tested by IP-One Gq assay kit (Cisbio Bioassays, 62IPAPEJ) following the instruction manual. In general, cells were resuspended with 1× HBSS buffer containing 20 mM LiCl (stimulation buffer) and seeded into the white 384-well microplates (Proxi Plate^TM-384 Plus, PerkinElmer) with a density of 20,000 per well. Cells were preincubated with 10^−5 M R-PSOP (provided by Boehringer Ingelheim company, Germany) and gradient concentration from 10^−4 to 10^−11 M of NMU-25 or gradient concentration 10^−4 to 10^−11 M of NMU-25 alone in stimulation buffer at 37 °C for 90 min. The cryptate-labeled anti-IP1 monoclonal antibody and d2-labeled IP1 were diluted with lysis & detection buffer (1:20) and added to each well by 3 μl, respectively. The plates were incubated at room temperature for 60 minutes and then read in a Synerg^TM H1 microplate reader (BioTek) with excitation at 330 nm and emission at 620 and 665 nm. The IP1 production was calculated by a standard dose–response curve and analyzed by GraphPad Prism 8.0.

NMU2 [1] = conditions: cited from earlier work
NMU2 E127A = biological target: T2, NMU2 E127A (Homo sapiens, UniProt Q9GZQ4, E127A); test: IP accumulation assay, NMU2 mutant E127A; assay type: cell-based; conditions: 10 μM R-PSOP
T2 construct: HA signal peptide (N); expressed in transfected cells; host or cells: HEK 293F
T2 sequence (Q9GZQ4 whole entry E127A): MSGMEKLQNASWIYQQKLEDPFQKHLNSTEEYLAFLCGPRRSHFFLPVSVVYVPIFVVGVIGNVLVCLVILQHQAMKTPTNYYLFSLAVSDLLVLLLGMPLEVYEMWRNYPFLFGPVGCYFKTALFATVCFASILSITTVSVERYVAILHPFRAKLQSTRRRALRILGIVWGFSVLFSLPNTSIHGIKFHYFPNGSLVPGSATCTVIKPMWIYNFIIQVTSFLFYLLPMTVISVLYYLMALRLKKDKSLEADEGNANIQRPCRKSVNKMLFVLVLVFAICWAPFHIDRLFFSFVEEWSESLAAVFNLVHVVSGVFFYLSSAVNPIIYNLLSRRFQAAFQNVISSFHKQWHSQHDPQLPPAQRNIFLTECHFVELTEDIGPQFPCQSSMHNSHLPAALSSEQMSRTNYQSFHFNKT
Method: as §1

NMU2 F224A = biological target: T3, NMU2 F224A (Homo sapiens, UniProt Q9GZQ4, F224A); test: IP accumulation assay, NMU2 mutant F224A; assay type: cell-based; conditions: 10 μM R-PSOP
T3 construct: HA signal peptide (N); expressed in transfected cells; host or cells: HEK 293F, transient transfection, PTT5 vector
T3 sequence (Q9GZQ4 whole entry F224A): as the sequence (Q9GZQ4 whole entry E127A) above, with A127E, F224A counted along it
Method: as §1

NMU2 E102A = biological target: T4, NMU2 E102A (Homo sapiens, UniProt Q9GZQ4, E102A); test: IP accumulation assay, NMU2 mutant E102A; assay type: cell-based; conditions: 10 μM R-PSOP
T4 construct: HA signal peptide (N); expressed in transfected cells; host or cells: HEK 293F
T4 sequence (Q9GZQ4 whole entry E102A): as the sequence (Q9GZQ4 whole entry E127A) above, with E102A, A127E counted along it
Method: as §1

NMU2 H285A = biological target: T5, NMU2 H285A (Homo sapiens, UniProt Q9GZQ4, H285A); test: IP accumulation assay, NMU2 mutant H285A; assay type: cell-based; conditions: 10 μM R-PSOP
T5 construct: HA signal peptide (N); expressed in transfected cells; host or cells: HEK 293F, transient transfection, PTT5 vector
T5 sequence (Q9GZQ4 whole entry H285A): as the sequence (Q9GZQ4 whole entry E127A) above, with A127E, H285A counted along it
Method: as §1

NMU2 F177C = biological target: T6, NMU2 F177C (Homo sapiens, UniProt Q9GZQ4, F177C); test: IP accumulation assay, NMU2 mutant F177C; assay type: cell-based; conditions: 10 μM R-PSOP
T6 construct: HA signal peptide (N); expressed in transfected cells; host or cells: HEK 293F, transient transfection, PTT5 vector
T6 sequence (Q9GZQ4 whole entry F177C): as the sequence (Q9GZQ4 whole entry E127A) above, with A127E, F177C counted along it
Method: as §1

NMU2 [2] = biological target: T7, NMU2 (Homo sapiens, UniProt Q9GZQ4); test: IP accumulation assay (IP-One Gq kit), WT NMU2; assay type: cell-based; conditions: 10 μM R-PSOP
T7 construct: HA signal peptide (N); expressed in transfected cells; host or cells: HEK 293F
T7 sequence (Q9GZQ4 whole entry): as the sequence (Q9GZQ4 whole entry E127A) above, with A127E counted along it
Method: as §1

T1 sequence (Q9GZQ4 whole entry F131L): as the sequence (Q9GZQ4 whole entry E127A) above, with A127E, F131L counted along it

With `O=C(Nc1ccccc1)Nc1cnc2c(c1)C[C@@]1(CN3CCC1CC3)O2` [R-PSOP] the “Ratio EC50(NmU-25 + R-PSOP)/EC50(NmU-25)” value (NMU2 F131L) was 3, the “Ratio change EC50 ratio (WT)/EC50 ratio (mutant)” value (shortened to “Ratio change EC50 ratio”) (NMU2 F131L) was 4 fold and the “antagonistic effect of R-PSOP (in words)” value (NMU2 F131L; IP accumulation) was “decreased the antagonistic effect of R-PSOP significantly”. For the same compound, the Ki (NMU2 [1]) was 52 nM, the “Ratio EC50(NmU-25 + R-PSOP)/EC50(NmU-25)” value (NMU2 E127A) was 2 and the “Ratio change EC50 ratio” value (NMU2 E127A) was 6.5 fold. The “Ratio EC50(NmU-25 + R-PSOP)/EC50(NmU-25)” value (NMU2 F224A) was 4, the “Ratio change EC50 ratio” value (NMU2 F224A) was 3 fold and the “antagonist inhibition effect of R-PSOP (in words)” value (NMU2 F224A; IP accumulation) was “abolished”. The “Ratio EC50(NmU-25 + R-PSOP)/EC50(NmU-25)” value (NMU2 E102A) was 2, the “Ratio change EC50 ratio” value (NMU2 E102A) was 6.5 fold and the “antagonist inhibition effect of R-PSOP (in words)” value (NMU2 E102A; IP accumulation) was “abolished”. The “Ratio EC50(NmU-25 + R-PSOP)/EC50(NmU-25)” value (NMU2 H285A) was 20, the “Ratio change EC50 ratio” value (NMU2 H285A) was 0.65 fold and the “Ratio EC50(NmU-25 + R-PSOP)/EC50(NmU-25)” value (NMU2 F177C) was 8. For the same compound, the “Ratio change EC50 ratio” value (NMU2 F177C) was 1.6 fold, the “antagonistic effect of R-PSOP (in words)” value (NMU2 F177C; IP accumulation) was “decreased the antagonistic effect of R-PSOP significantly” and the “Ratio EC50(NmU-25 + R-PSOP)/EC50(NmU-25)” value (NMU2 [2]) was 13. The “Ratio change EC50 ratio” value (NMU2 [2]) was 1 fold.

From paper PMC9794833, “Ligand recognition and activation of neuromedin U receptor 2” (Nature Communications, 2022)
